According to patent publication US20210395239A1 (Hoffmann-La Roche Inc., priority 2018, published 2021):

Target: T1, hTLR9 (Homo sapiens, UniProt Q9NR96)
T1 sequence (Q9NR96 26-1032): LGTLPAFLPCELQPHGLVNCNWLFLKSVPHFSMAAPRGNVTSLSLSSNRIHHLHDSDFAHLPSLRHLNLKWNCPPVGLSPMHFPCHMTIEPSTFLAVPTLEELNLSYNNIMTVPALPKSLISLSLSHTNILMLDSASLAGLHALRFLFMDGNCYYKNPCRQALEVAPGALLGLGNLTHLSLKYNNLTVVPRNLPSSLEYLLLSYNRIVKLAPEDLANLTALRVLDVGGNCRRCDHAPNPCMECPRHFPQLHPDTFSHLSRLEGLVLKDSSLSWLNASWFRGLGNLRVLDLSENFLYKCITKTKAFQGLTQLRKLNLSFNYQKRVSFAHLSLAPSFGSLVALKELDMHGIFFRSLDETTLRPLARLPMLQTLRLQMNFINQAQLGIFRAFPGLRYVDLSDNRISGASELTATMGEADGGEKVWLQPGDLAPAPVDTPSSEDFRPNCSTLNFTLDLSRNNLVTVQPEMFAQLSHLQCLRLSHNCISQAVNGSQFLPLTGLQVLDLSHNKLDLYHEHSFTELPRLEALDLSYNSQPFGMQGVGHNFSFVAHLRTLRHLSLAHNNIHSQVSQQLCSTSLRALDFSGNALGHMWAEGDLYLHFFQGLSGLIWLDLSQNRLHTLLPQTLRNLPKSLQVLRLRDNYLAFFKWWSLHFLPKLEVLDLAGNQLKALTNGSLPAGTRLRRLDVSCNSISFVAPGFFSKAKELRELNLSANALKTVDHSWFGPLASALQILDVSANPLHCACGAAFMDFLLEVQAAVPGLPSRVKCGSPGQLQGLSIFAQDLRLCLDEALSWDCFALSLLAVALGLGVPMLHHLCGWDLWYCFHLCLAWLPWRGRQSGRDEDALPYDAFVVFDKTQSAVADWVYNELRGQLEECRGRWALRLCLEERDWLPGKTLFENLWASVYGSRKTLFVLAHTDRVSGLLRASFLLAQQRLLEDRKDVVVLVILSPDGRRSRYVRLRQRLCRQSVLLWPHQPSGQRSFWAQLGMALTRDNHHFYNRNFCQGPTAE
Assay: HEK293-Blue-hTLR-9 cells assay (SEAP reporter, ODN2006 stimulation)
Format: cell-based
Parameters: host or cells: HEK293 (HEK-Blue hTLR9)
Settings: HEK293-Blue-hTLR9 cells, ODN2006, 20 hrs; read-out: HEK/hTLR9 IC50
Outline: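 Antagonism read as lowered SEAP reporter absorbance (620–655 nm, QUANTI-Blue, 2 h, 37 °C) in supernatants. Before that, ODN2006-stimulated HEK293-Blue cells stably expressing human TLR9 were exposed to compound dilutions at 1% final DMSO for 20 h at 37 °C.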

Structure (SMILES)	IC50
[2H]c1nc2c(C#N)ccc(N3C[C@H](CN4CCN(c5nc(C)cc(N6CC(N)C6)n5)CC4)O[C@H](C)C3)c2nc1[2H] [Example 124, 8-[(2S,6R)-2-[[4-[4-(3-aminoazetidin-1-yl)-6-methyl-pyrimidin-2-yl]piperazin-1-yl]methyl]-6-methyl-morpholin-4-yl]-2,3-dideuterio-quinoxaline-5-carbonitrile]	0.031 µM
Cc1cc(N2C[C@@H](N)[C@](C)(O)C2)nc(N2CCN(C[C@H]3CN(c4ccc(C#N)c5nccnc45)C[C@@H](C)O3)CC2)n1 [Example 125, 8-[(2S,6R)-2-[[4-[4-[(3R,4R)-4-amino-3-hydroxy-3-methyl-pyrrolidin-1-yl]-6-methyl-pyrimidin-2-yl]piperazin-1-yl]methyl]-6-methyl-morpholin-4-yl]quinoxaline-5-carbonitrile]	0.083 µM
Cc1ccc(N2C[C@H](CN3CCN(c4ccnc(N5CC6(CNCCO6)C5)n4)CC3)O[C@H](C)C2)c2nccnc12 [Example 126, 2-[4-[4-[[(2S,6R)-6-methyl-4-(8-methylquinoxalin-5-yl)morpholin-2-yl]methyl]piperazin-1-yl]pyrimidin-2-yl]-5-oxa-2,8-diazaspiro[3.5]nonane]	0.146 µM
Cc1ccc(N2C[C@H](CN3CCN(c4ccnc(N5CCN[C@@H](C)C5)n4)CC3)O[C@H](C)C2)c2nccnc12 [Example 127, (2R,6S)-2-methyl-6-[[4-[2-[(3S)-3-methylpiperazin-1-yl]pyrimidin-4-yl]piperazin-1-yl]methyl]-4-(8-methylquinoxalin-5-yl)morpholine]	0.149 µM
Cc1ccc(N2C[C@H](CN3CCN(c4ccnc(N5CCN[C@H](C)C5)n4)CC3)O[C@H](C)C2)c2nccnc12 [Example 128, (2R,6S)-2-methyl-6-[[4-[2-[(3R)-3-methylpiperazin-1-yl]pyrimidin-4-yl]piperazin-1-yl]methyl]-4-(8-methylquinoxalin-5-yl)morpholine]	0.182 µM
Cc1ccc(N2C[C@H](CN3CCN(c4ccnc(N5C[C@H]6NCCO[C@@H]6C5)n4)CC3)O[C@H](C)C2)c2nccnc12 [Example 129, (4aR,7aR)-6-[4-[4-[[(2S,6R)-6-methyl-4-(8-methylquinoxalin-5-yl)morpholin-2-yl]methyl]piperazin-1-yl]pyrimidin-2-yl]-3,4,4a,5,7,7a-hexahydro-2H-pyrrolo[3,4-b][1,4]oxazine]	0.171 µM
Cc1ccc(N2C[C@H](CN3CCN(c4ccnc(N5CC(N)C5)n4)CC3)O[C@H](C)C2)c2nccnc12 [Example 130, 1-[4-[4-[[(2S,6R)-6-methyl-4-(8-methylquinoxalin-5-yl)morpholin-2-yl]methyl]piperazin-1-yl]pyrimidin-2-yl]azetidin-3-amine]	0.155 µM
[2H]c1ccc2c(N3C[C@H](CN4CCN(c5nc(OC)cc(N6CC(C)(N)C6)n5)CC4)O[C@H](C)C3)ccc(C#N)c2n1 [Example 131, 5-[(2S,6R)-2-[[4-[4-(3-amino-3-methyl-azetidin-1-yl)-6-methoxy-pyrimidin-2-yl]piperazin-1-yl]methyl]-6-methyl-morpholin-4-yl]-2-deuterio-quinoline-8-carbonitrile]	0.113 µM
[2H]c1ccc2c(N3C[C@H](CN4CCN(c5ccc(N6CC(C)(N)C6)nc5)CC4)O[C@H](C)C3)ccc(C#N)c2n1 [Example 132, 5-[(2S,6R)-2-[[4-[6-(3-amino-3-methyl-azetidin-1-yl)-3-pyridyl]piperazin-1-yl]methyl]-6-methyl-morpholin-4-yl]-2-deuterio-quinoline-8-carbonitrile]	0.14 µM
[2H]c1ccc2c(N3C[C@H](CN4CCN(c5cnc(N6CC(C)(N)C6)cc5C)CC4)O[C@H](C)C3)ccc(C#N)c2n1 [Example 133, 5-[(2S,6R)-2-[[4-[6-(3-amino-3-methyl-azetidin-1-yl)-4-methyl-3-pyridyl]piperazin-1-yl]methyl]-6-methyl-morpholin-4-yl]-2-deuterio-quinoline-8-carbonitrile]	0.068 µM

Continued, values first:

IC50	Structure (SMILES)
0.048 µM	[2H]c1ccc2c(N3C[C@H](CN4CCN(c5nc(C)cc(N6C[C@H](OC)[C@@H](N)C6)n5)CC4)O[C@H](C)C3)ccc(C#N)c2n1 [Example 134, 5-[(2S,6R)-2-[[4-[4-[(3S,4S)-3-amino-4-methoxy-pyrrolidin-1-yl]-6-methyl-pyrimidin-2-yl]piperazin-1-yl]methyl]-6-methyl-morpholin-4-yl]-2-deuterio-quinoline-8-carbonitrile]
0.056 µM	[2H]c1ccc2c(N3C[C@H](CN4CCN(c5nc(C)cc(N6CC(C)(N)C6)n5)CC4)O[C@H](C)C3)ccc(C#N)c2n1 [Example 135, 5-[(2S,6R)-2-[[4-[4-(3-amino-3-methyl-azetidin-1-yl)-6-methyl-pyrimidin-2-yl]piperazin-1-yl]methyl]-6-methyl-morpholin-4-yl]-2-deuterio-quinoline-8-carbonitrile]
0.033 µM	[2H]c1ccc2c(N3C[C@H](CN4CCN(c5nc(C)cc(N6CC(N)C6)n5)CC4)O[C@H](C)C3)ccc(C#N)c2n1 [Example 136, 5-[(2S,6R)-2-[[4-[4-(3-aminoazetidin-1-yl)-6-methyl-pyrimidin-2-yl]piperazin-1-yl]methyl]-6-methyl-morpholin-4-yl]-2-deuterio-quinoline-8-carbonitrile]
0.066 µM	[2H]c1ccc2c(N3C[C@H](CN4CCN(c5ccc(N6CC(C)(N)C6)nc5C)CC4)O[C@H](C)C3)ccc(C#N)c2n1 [Example 137, 5-[(2S,6R)-2-[[4-[6-(3-amino-3-methyl-azetidin-1-yl)-2-methyl-3-pyridyl]piperazin-1-yl]methyl]-6-methyl-morpholin-4-yl]-2-deuterio-quinoline-8-carbonitrile]
0.04 µM	[2H]c1ccc2c(N3C[C@H](CN4CC(c5ccc(N6CC(C)(N)C6)nc5)C4)O[C@H](C)C3)ccc(C#N)c2n1 [Example 138, 5-[(2S,6R)-2-[[3-[6-(3-amino-3-methyl-azetidin-1-yl)-3-pyridyl]azetidin-1-yl]methyl]-6-methyl-morpholin-4-yl]-2-deuterio-quinoline-8-carbonitrile]
0.078 µM	[2H]c1ccc2c(N3C[C@H](CN4CCN(c5ncc(N6CC(C)(N)C6)cc5C)CC4)O[C@H](C)C3)ccc(C#N)c2n1 [Example 139, 5-[(2S,6R)-2-[[4-[5-(3-amino-3-methyl-azetidin-1-yl)-3-methyl-2-pyridyl]piperazin-1-yl]methyl]-6-methyl-morpholin-4-yl]-2-deuterio-quinoline-8-carbonitrile]
0.162 µM	[2H]c1ccc2c(N3C[C@H](CN4CC(c5ccc(N6C[C@H](OC)[C@@H](N)C6)cc5)C4)O[C@H](C)C3)ccc(C#N)c2n1 [Example 140, 5-[(2S,6R)-2-[[3-[4-[(3S,4S)-3-amino-4-methoxy-pyrrolidin-1-yl]phenyl]azetidin-1-yl]methyl]-6-methyl-morpholin-4-yl]-2-deuterio-quinoline-8-carbonitrile]
0.044 µM	[2H]c1ccc2c(N3C[C@H](CN4CC(c5ccc(N6CC(C)(N)C6)cc5)C4)O[C@H](C)C3)ccc(C#N)c2n1 [Example 141, 5-[(2S,6R)-2-[[3-[4-(3-amino-3-methyl-azetidin-1-yl)phenyl]azetidin-1-yl]methyl]-6-methyl-morpholin-4-yl]-2-deuterio-quinoline-8-carbonitrile]
0.064 µM	[2H]c1ccc2c(N3C[C@H](CN4CCN(c5ncc(N6C[C@@H](N)[C@H](OC)C6)cc5C)CC4)O[C@H](C)C3)ccc(C#N)c2n1 [Example 142, 5-[(2S,6R)-2-[[4-[5-[(3R,4R)-3-amino-4-methoxy-pyrrolidin-1-yl]-3-methyl-2-pyridyl]piperazin-1-yl]methyl]-6-methyl-morpholin-4-yl]-2-deuterio-quinoline-8-carbonitrile]
0.047 µM	[2H]c1ccc2c(N3C[C@H](CN4CCN(c5ccc(N6C[C@@H](N)[C@H](OC)C6)nc5)CC4)O[C@H](C)C3)ccc(C#N)c2n1 [Example 143, 5-[(2S,6R)-2-[[4-[6-[(3R,4R)-3-amino-4-methoxy-pyrrolidin-1-yl]-3-pyridyl]piperazin-1-yl]methyl]-6-methyl-morpholin-4-yl]-2-deuterio-quinoline-8-carbonitrile]
